Patent US20050113274A1, “Hydrocarbyl aminohydrocarbonoates and aminohydrocarbonol hydrocarbonoates as antimicrobial and antiviral agents” (priority 2003, published 2005)

How the values were obtained:
Streptococcus aureus = assay: USP Antimicrobial Preservatives Effectiveness Test, S. aureus; format: cell-based; conditions: DDAIP formulation of Example 1
Excerpt: (§1) Thus, in the presence of Pseudomonas aeruginosa, […], Candida albicans, Streptococcus aureus, and Escherichia coli after 7 days of study less than 10 cfu/ml remained, with Aspergillus niger this value was observed after 21 days of study.

Pseudomonas aeruginosa = assay: USP Antimicrobial Preservatives Effectiveness Test, P. aeruginosa; format: cell-based; conditions: DDAIP formulation of Example 1
Excerpt: as §1

Candida albicans = assay: USP Antimicrobial Preservatives Effectiveness Test, C. albicans; format: cell-based; conditions: DDAIP formulation of Example 1
Excerpt: as §1

Aspergillus niger = assay: USP Antimicrobial Preservatives Effectiveness Test, A. niger; format: cell-based; conditions: DDAIP formulation of Example 1
Excerpt: as §1

Escherichia coli = assay: USP Antimicrobial Preservatives Effectiveness Test, E. coli; format: cell-based; conditions: DDAIP formulation of Example 1
Excerpt: as §1

microorganism growth = assay: Visual microorganism growth testing of formulations; format: cell-based; conditions: room temperature and refrigerator conditions; test period of 2 months
Procedure: Additional formulations (such as in the examples that follow) were prepared and submitted to visual microorganism growth testing at room temperature (RT) and refrigerator conditions. The examples given below constitute some typical samples of various formulations prepared and tested.

stratum corneum proteins = conditions: FIG. 1; compared with control; cited from earlier work

SMILES: CCCCCCCCCCCCOC(=O)C(C)N(C)C (stereo not shown) [DDAIP, Dodecyl 2-(N,N-dimethylamino)propionate]
- S. aureus (cfu/ml), 7 days (Streptococcus aureus; 7 days): <10 cfu/ml
- S. aureus (cfu/ml), 14 days (Streptococcus aureus; 14 days): <10 cfu/ml
- S. aureus (cfu/ml), 21 days (Streptococcus aureus; 21 days): <10 cfu/ml
- S. aureus (cfu/ml), 28 days (Streptococcus aureus; 28 days): <10 cfu/ml
- S. aureus (cfu/ml), Time Zero (Streptococcus aureus; day zero count): 6.90E+05 cfu/ml
- P. aeruginosa (cfu/ml), 7 days (Pseudomonas aeruginosa; 7 days): <10 cfu/ml
- P. aeruginosa (cfu/ml), 14 days (Pseudomonas aeruginosa; 14 days): <10 cfu/ml
- P. aeruginosa (cfu/ml), 21 days (Pseudomonas aeruginosa; 21 days): <10 cfu/ml
- P. aeruginosa (cfu/ml), 28 days (Pseudomonas aeruginosa; 28 days): <10 cfu/ml
- P. aeruginosa (cfu/ml), Time Zero (Pseudomonas aeruginosa; day zero count): 3.55E+05 cfu/ml
- C. albicans (cfu/ml), 7 days (Candida albicans; 7 days): <10 cfu/ml
- C. albicans (cfu/ml), 14 days (Candida albicans; 14 days): <10 cfu/ml
- C. albicans (cfu/ml), Time Zero (Candida albicans; day zero count): 3.45E+05 cfu/ml
- A. niger (cfu/ml), 7 days (Aspergillus niger; 7 days): 1.40E+03 cfu/ml
- A. niger (cfu/ml), 14 days (Aspergillus niger; 14 days): 3.00E+02 cfu/ml
- A. niger (cfu/ml), Time Zero (Aspergillus niger; day zero count): 3.05E+05 cfu/ml
- E. coli (cfu/ml), 7 days (Escherichia coli; 7 days): <1 cfu/ml
- E. coli (cfu/ml), 14 days (Escherichia coli; 14 days): <1 cfu/ml
- E. coli (cfu/ml), Time Zero (Escherichia coli; day zero count): 5.70E+05 cfu/ml
- visual microorganism growth (microorganism growth): no growth was observed
- number of free thiol groups of stratum corneum proteins (effect on protein domain) (stratum corneum proteins): effect on the protein domain

SMILES: CCO [ethanol, reference compound]
- number of free thiol groups of stratum corneum proteins (effect on protein domain) (stratum corneum proteins): affects protein domain
